Results reported in PubChem BioAssay (NCI).
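Step 1: Grow cells in 96-well plates. Step 2: Expose to compound for 48 hours at 5 concentrations. Step 3: Interpolate endpoints linearly; if unreached, use highest concentration. TGI marks complete inhibition of growth.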

Key:
Assay in all cases: NCI-60 cell line screen, 48 h
DMS 273 small cell lung = system: DMS 273 small cell lung
KM20L2 colon = system: KM20L2 colon
LXFL 529 NSCLC = system: LXFL 529 NSCLC
M19-MEL melanoma = system: M19-MEL melanoma
SNB-78 CNS = system: SNB-78 CNS
XF 498 CNS = system: XF 498 CNS

O=C(Nc1ccc(Cl)cc1)C(=O)C(C(=O)c1ccccc1-c1ccccc1)C1OC(=O)c2ccccc21 (stereo unspecified)
TGI (DMS 273 small cell lung): > 100 µM
TGI (KM20L2 colon): 55.6 µM
TGI (LXFL 529 NSCLC): 34.2 µM
TGI (M19-MEL melanoma): 41.6 µM
TGI (SNB-78 CNS): > 100 µM
TGI (XF 498 CNS): 36.6 µM
